Results: PMC11872507, “Lasso peptides sviceucin and siamycin I exhibit anti-virulence activity and restore vancomycin effectiveness in vancomycin-resistant pathogens” (iScience, 2025)
≈ marks a conversion by molar mass, not a printed value. Positions of bridges follow the written chain, without caps; N, C: chain ends. Residues, ends and D or L forms follow the SMILES beside them. No end group written: not given here.

Key:
[1] = tested on: E. faecalis V583; test: microbe, parasite or virus in culture; assay type: cell-based, Enterococcus faecalis; settings: peptide alone, without vancomycin; VanB
[2] = tested on: E. faecalis JH2-2 08048; test: microbe, parasite or virus in culture; assay type: cell-based, Enterococcus faecalis; settings: peptide alone, without vancomycin; VanB
Description: (§1) The MIC of vancomycin was determined by the microdilution method described in the guidelines of the European Committee on Antimicrobial Susceptibility Testing (EUCAST 2024, v14.0 Breakpoint Tables).[58] For enterococci, GM17 medium was used instead of CAMH medium since enterococci cannot degrade starch, the main carbohydrate of MH medium. 2-fold serial dilutions of the tested antibiotic were performed to obtain concentrations ranging from 0.5 to 512 μg/mL. LP were then added to the wells at the desired concentration. The medium was inoculated with a final inoculum of 5 × 10^5 CFU/mL. The MIC is the lowest concentration that prevents visible in vitro growth.

[3] = tested on: E. faecalis merz96; test: microbe, parasite or virus in culture; assay type: cell-based, Enterococcus faecalis; settings: peptide alone, without vancomycin; VanB
[4] = tested on: E. faecium 1 231 410; test: microbe, parasite or virus in culture; assay type: cell-based, Enterococcus faecium; settings: peptide alone, without vancomycin; VanA
[5] = tested on: E. faecalis HIP11704; test: microbe, parasite or virus in culture; assay type: cell-based, Enterococcus faecalis; settings: peptide alone, without vancomycin; VanA
[6] = tested on: E. faecium 1 231 502; test: microbe, parasite or virus in culture; assay type: cell-based, Enterococcus faecium; settings: peptide alone, without vancomycin; VanA
[7] = tested on: E. faecium 1 230 933; test: microbe, parasite or virus in culture; assay type: cell-based, Enterococcus faecium; settings: peptide alone, without vancomycin; VanA
[8] = tested on: S. aureus T-SAR12 VRSA.A; test: microbe, parasite or virus in culture; assay type: cell-based, Staphylococcus aureus; settings: peptide alone, without vancomycin; VanA
Description: as §1

[9] = tested on: S. aureus T-SAR12 VRSA.B; test: microbe, parasite or virus in culture; assay type: cell-based, Staphylococcus aureus; settings: peptide alone, without vancomycin; VanB
Description: as §1

[10] = tested on: E. faecalis V583 ΔvanB; test: microbe, parasite or virus in culture; assay type: cell-based, Enterococcus faecalis; settings: peptide alone, without vancomycin; van-
[11] = tested on: S. aureus 16038 (VISA); test: microbe, parasite or virus in culture; assay type: cell-based, Staphylococcus aureus; settings: peptide alone, without vancomycin; van-
[12] = molecular target: T1, VanS^127-384 (VanA-type, C-His6) (Enterococcus faecium, UniProt Q06240); test: biochemical
T1 construct: only the C-terminal His6-tagged VanA-type VanS^127-384 could be obtained as a soluble protein; made in house; host or cells: E. coli BL21(DE3), plasmid pET29b(+) vanS^127-384
Description: (§2) Terrific medium[68] […] The culture was incubated at 37°C with agitation at 180 rpm. Induction of protein expression was achieved by adding IPTG to a final concentration of 0.1 mM when the bacterial density reached an OD600 of 0.5. The culture was then incubated for 20 h at 25°C with agitation at 180 rpm. The cells were then washed twice in purification buffer (20 mM sodium phosphate buffer, 500 mM NaCl, 5 mM MgCl2, 10 mM imidazole (pH 7.4)). Cells were treated with lysozyme at 1 mg/mL final concentration for 30 min at 4°C and lysed by sonication with the Fisherbrand Model 120 Sonic Dismembrator (Fisher scientific, USA). The total fraction recovered was centrifuged at 10000 rpm at 4°C for 30 to 45 min and only the supernatant, representing the soluble fraction, was recovered for purification.
(§3) Protein purification was carried out on a HisTrap FF Crude 5 mL column (Cytiva, USA) using the ÄKTA start device (Cytiva, USA), following the manufacturer’s recommendations. […] Protein concentration was determined with the Pierce BCA Protein Assay Kit (Thermo Scientific, USA) according to the manufacturer’s recommendations and then stored at −80°C.
(§4) The phosphorylation assay followed reported procedure with some modifications.[38] […] The reaction was allowed to start by adding ATP and NADH, and monitored continuously at 340 nm at 37°C by a microplate reader (POLARstar OMEGA, BMG Labtech, Germany). […]

[13] = molecular target: T2, VanS^127-384 (Enterococcus faecium, UniProt Q06240); test: biochemical; assay type: binding
T2 construct: only the C-terminal His6-tagged VanA-type VanS^127-384 could be obtained as a soluble protein; made in house; host or cells: E. coli BL21(DE3), plasmid pET29b(+) vanS^127-384

[14] = tested on: all tested E. faecalis and E. faecium strains; test: Growth inhibition / MIC, strain panel; assay type: cell-based; settings: peptide alone
[15] = tested on: VanB- or VanA-type strains; settings: same among the different VanB- or VanA-type strains
Description: as §1

[16] = tested on: Galleria mellonella larvae; test: Toxicity toward larvae; assay type: in vivo; settings: siamycin I-loaded nanoemulsion, about 18 mg/kg, 90 min and 24 h, observed to 96 h
Description: Larvae were infected with the wild-type strain E. faecalis V583, the isogenic vancomycin-sensitive mutant V583 ΔvanB, or an equivalent volume of saline solution. At t90min and t24h post-infection (p.i.), the larvae were treated with the nanoemulsion alone (referred to as formulation), the nanoemulsion loaded with siamycin I (3.92 μg/larvae; about 18 mg/kg), vancomycin (1 μg/larvae; about 4.6 mg/kg) alone, or a combination of both. Larvae survival was assessed, and statistical analysis was performed at the endpoint t96h.
To assess the C1LPs' efficacy as treatment of E. faecalis infection, the strains V583 or V583 ΔvanB were grown without previous C1LP exposition. 20 larvae were used for each condition. At 1.5 and 24 h p.i., larvae were injected with 4.76 mg of vancomycin per kilogram and/or 18 mg of siamycin I per kilogram, or the equivalent volume of nanoemulsion as a control. Larvae killing was then monitored between 1.5 and 96 h p.i.. Data and statistical analysis were performed using the Kaplan-Meier R package and the log -rank test, respectively.

[17] = molecular target: T3, VanS^127-384 (VanA-type, C-His6) (Enterococcus faecium, UniProt Q06240); test: biochemical; settings: 0–100 μM peptide
T3 construct: only the C-terminal His6-tagged VanA-type VanS^127-384 could be obtained as a soluble protein; made in house; host or cells: E. coli BL21(DE3), plasmid pET29b(+) vanS^127-384
T3 sequence (Q06240 whole entry, looked up): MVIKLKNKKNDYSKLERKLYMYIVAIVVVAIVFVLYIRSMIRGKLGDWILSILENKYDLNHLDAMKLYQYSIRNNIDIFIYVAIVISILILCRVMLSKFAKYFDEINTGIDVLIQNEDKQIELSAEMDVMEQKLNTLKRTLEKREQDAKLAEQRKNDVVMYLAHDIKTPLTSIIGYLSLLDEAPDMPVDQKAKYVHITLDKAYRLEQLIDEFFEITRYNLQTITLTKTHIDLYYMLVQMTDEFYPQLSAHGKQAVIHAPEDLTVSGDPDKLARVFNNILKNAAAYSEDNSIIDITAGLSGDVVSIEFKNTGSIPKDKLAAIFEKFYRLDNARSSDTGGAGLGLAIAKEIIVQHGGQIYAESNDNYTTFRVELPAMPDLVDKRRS
Description: as §2, §3, §4

[18] = molecular target: T4, VanS^127-384 (Enterococcus faecium, UniProt Q06240); test: biochemical; assay type: binding; settings: 10 μM VanS, pH 7.5; siamycin I 6 to 90 μM; sviceucin 12 to 180 μM; microcin J25 25 to 200 μM
T4 construct: only the C-terminal His6-tagged VanA-type VanS^127-384 could be obtained as a soluble protein; made in house; host or cells: E. coli BL21(DE3), plasmid pET29b(+) vanS^127-384
T4 sequence (Q06240 whole entry, looked up): T3 sequence (Q06240 whole entry, looked up)
Description: Protein purification was carried out on a HisTrap FF Crude 5 mL column (Cytiva, USA) using the ÄKTA start device (Cytiva, USA), following the manufacturer’s recommendations. The column was equilibrated with the purification buffer and then loaded with the soluble fraction. The protein of interest was washed and eluted with an imidazole gradient of 10 mM–500 mM in purification buffer. The purified protein was desalted and concentrated on a Vivaspin 6 30 kDa MWCO column (Cytiva, USA) according to the manufacturer’s recommendations. Protein concentration was determined with the Pierce BCA Protein Assay Kit (Thermo Scientific, USA) according to the manufacturer’s recommendations and then stored at −80°C.
All the experiments were performed in 96 Fast PCR Plates full skirt (Sarstedt, Germany) and in CFX96 Real-Time PCR system (BioRad, USA). Screening was conducted (Table S7) to determine the best buffer and ratios of protein and SYPRO Orange Protein Gel Stain (Sigma-Aldrich, USA). […] The Tm of each well was determined on the Melt Curve panel with a negative peak type. Tm means were calculated for each condition before model analysis. ΔT was calculated from the subtraction of the Tm of the protein with the buffer alone and the Tm with the lasso peptides. […]

Molecule | Lasso peptide MIC [1] [µM] | Lasso peptide MIC [2] [µM] | Lasso peptide MIC [3] [µM] | Lasso peptide MIC [4] [µM] | Lasso peptide MIC [5] [µM] | Lasso peptide MIC [6] [µM] | Lasso peptide MIC [7] [µM] | Lasso peptide MIC [8] [µM] | Lasso peptide MIC [9] [µM] | Lasso peptide MIC [10] [µM] | Lasso peptide MIC [11] [µM] | IC50 [12] [µM] | Kd [13] [µM] | MIC, complete growth inhibition [14] | MIC of peptide in absence of vancomycin [15] [µM] | toxicity toward the larvae [16] | effect on VanS^127-384 autophosphorylation, in words [17] | effect on melting temperature (Tm) of VanS^127-384, in words [18]
CC[C@H](C)[C@@H]1NC(=O)[C@H](Cc2c[nH]c3ccccc23)NC(=O)[C@H](C)NC(=O)[C@H]([C@@H](C)O)NC(=O)CNC(=O)[C@@H]2CSSC[C@@H]3NC(=O)C[C@H](NC(=O)[C@H]([C@@H](C)O)NC(=O)[C@H](CSSC[C@@H](C(=O)N[C@H](C(=O)O)C(C)C)NC1=O)NC(=O)[C@H](CC(=O)O)NC(=O)CNC(=O)CNC(=O)[C@H](Cc1c[nH]c4ccccc14)NC(=O)[C@H](C(C)C)NC3=O)C(=O)N[C@@H](Cc1ccccc1)C(=O)N[C@@H](CC(C)C)C(=O)NCC(=O)N2 [Sviceucin] (CVWGGDCTDFLGCGTAWICV-OH; disulfide 1-13, 7-19; lactam N-9) | >10 | >10 | >10 | >10 | >10 | >10 | >10 | >10 | >10 | >10 | >10 | 10.8 ± 1.5 | 52 ± 1.6 | above 10 μM | > 10 |  |  | 
CC[C@H](C)[C@@H]1NC(=O)[C@H](C)NC(=O)[C@H](Cc2ccc(O)cc2)NC(=O)CNC(=O)[C@@H]2CSSC[C@@H]3NC(=O)C[C@H](NC(=O)[C@H](CC(N)=O)NC(=O)[C@H](CSSC[C@@H](C(=O)N[C@@H](Cc4ccccc4)C(=O)N[C@@H](Cc4c[nH]c5ccccc45)C(=O)O)NC(=O)[C@H](C(C)C)NC1=O)NC(=O)[C@H](CO)NC(=O)CNC(=O)[C@H](C(C)C)NC(=O)CNC(=O)[C@H](CC(C)C)NC3=O)C(=O)N[C@@H](Cc1ccccc1)C(=O)N[C@@H](C)C(=O)NCC(=O)N2 [Siamycin I] (CLGVGSCNDFAGCGYAIVCFW-OH; disulfide 1-13, 7-19; lactam N-9) | 5 | 5 | 5 | 5 | 5 | 5 | 5 | 5 | 5 | 5 | 5 |  | 38 ± 1 | 5 µM (≈ 10.8 µg/mL) | 5 | did not exhibit toxicity toward the larvae |  | 
Microcin J25: unrelated lasso peptide microcin J25 (GGAGHVPEYFVGIGTPISFYG; not fully specified) |  |  |  |  |  |  |  |  |  |  |  |  |  |  |  |  | had no effect on VanS^127-384 | did not affect the Tm of VanS^127-384
